Structures are written as SMILES. ≈ marks a conversion by molar mass, not a printed value.

Experimental findings from patent publication US20070142392A1, “Uses of rifamycins” (ActivBiotics, Inc., priority 2005, published 2007) are described below.

Format in all cases: cell-based
One test relates to E. faecalis. In words: MIC values, E. faecalis (Tables 1-4).
A further test has as its system S. pneumo. In words: MIC values, S. pneumo. (Tables 1-4).
In a further test the test system is H. flu.
Another test deals with S. aureus. Briefly: MIC values, S. aureus (Tables 1-4).
The test system of a further test is E. coli. Briefly: MIC values, E. coli (Tables 1-4).

As for `CCOC(=O)NCC1CCN(c2cc(O)c3nc4c5c6c7c(C)c(O)c5c(=O)c(c-4oc3c2)NC(=O)/C(C)=C\C=C\[C@H](C)[C@H](O)[C@@H](C)[C@@H](O)[C@@H](C)[C@H](OC(C)=O)[C@H](C)[C@@H](OC)/C=C/O[C@@](C)(O7)C6=O)CC1` [Compound 51], in the test on E. faecalis, the “MIC E. faecalis” value was 8000 ng/mL (≈ 8120 nM). Further, the “MIC S. pneumo.” value in the test on S. pneumo. amounted to 2 ng/mL (≈ 2.03 nM). Also, the “MIC H. flu” value with H. flu is 250 ng/mL (≈ 254 nM). The “MIC S. aureus” value in the test with S. aureus came out at 60 ng/mL (≈ 60.9 nM). The “MIC E. coli” value in the test on E. coli worked out at 8000 ng/mL (≈ 8120 nM).
Turning to `CCNC(=O)NC1CCN(c2cc(O)c3nc4c5c6c7c(C)c(O)c5c(=O)c(c-4oc3c2)NC(=O)/C(C)=C\C=C\[C@H](C)[C@H](O)[C@@H](C)[C@@H](O)[C@@H](C)[C@H](O)[C@H](C)[C@@H](OC)/C=C/O[C@@](C)(O7)C6=O)CC1` [Compound 37], in the test on E. faecalis, the “MIC E. faecalis” value came out at 2000 ng/mL (≈ 2160 nM). Further, the “MIC S. pneumo.” value with S. pneumo. came out at 4 ng/mL (≈ 4.31 nM). Also, the “MIC H. flu” value against H. flu turned out to be 250 ng/mL (≈ 269 nM). The “MIC S. aureus” value in the test on S. aureus came to 30 ng/mL (≈ 32.3 nM). Moreover, in the test with E. coli, the “MIC E. coli” value was above 8000 ng/mL.
The matching figures for `COC1C=COC2(C)Oc3c(C)c(O)c4c(=O)c(c5oc6cc(N7CC8C(C7)C8N(C)C)cc(O)c6nc-5c4c3C2=O)NC(=O)C(C)=CC=CC(C)C(O)C(C)C(O)C(C)C(O)C1C` (stereo not shown) [Compound 54]: 2000 ng/mL (≈ 2260 nM), 0.5 ng/mL (≈ 0.566 nM), 250 ng/mL (≈ 283 nM), 8 ng/mL (≈ 9.06 nM) and above 8000 ng/mL.
Taken in the same sequence, the figures for `CO[C@H]1/C=C/O[C@@]2(C)Oc3c(C)c(O)c4c(=O)c(c5oc6cc(N7CCC(NC(=O)OC(C)C)CC7)cc(O)c6nc-5c4c3C2=O)NC(=O)/C(C)=C\C=C\[C@H](C)[C@H](O)[C@@H](C)[C@@H](O)[C@@H](C)[C@H](OC(C)=O)[C@@H]1C` [Compound 22] were 4000 ng/mL (≈ 4060 nM), 0.25 ng/mL (≈ 0.254 nM), 2000 ng/mL (≈ 2030 nM), 15 ng/mL (≈ 15.2 nM) and above 8000 ng/mL.
Take `CO[C@H]1/C=C/O[C@@]2(C)Oc3c(C)c(O)c4c(=O)c(c5oc6cc(N7C[C@@H]8CCCN(C)[C@@H]8C7)cc(O)c6nc-5c4c3C2=O)NC(=O)/C(C)=C\C=C\[C@H](C)[C@H](O)[C@@H](C)[C@@H](O)[C@@H](C)[C@H](O)[C@@H]1C` [Compound 59]: the “MIC E. faecalis” value in the test on E. faecalis was determined as 60 ng/mL (≈ 66.9 nM). Further, in the test with S. pneumo., the “MIC S. pneumo.” value was found to be 1 ng/mL (≈ 1.11 nM). For the same compound, the “MIC H. flu” value with H. flu amounted to 120 ng/mL (≈ 134 nM). In addition, in the test with S. aureus, the “MIC S. aureus” value was found to be 4 ng/mL (≈ 4.46 nM). Moreover, the “MIC E. coli” value in the test with E. coli worked out at 4000 ng/mL (≈ 4460 nM).
The matching figures for `CO[C@H]1/C=C/O[C@@]2(C)Oc3c(C)c(O)c4c(=O)c(c5oc6cc(N7CCC(NC(=O)OCC(C)C)CC7)cc(O)c6nc-5c4c3C2=O)NC(=O)/C(C)=C\C=C\[C@H](C)[C@H](O)[C@@H](C)[C@@H](O)[C@@H](C)[C@H](OC(C)=O)[C@@H]1C` [Compound 13]: 500 ng/mL (≈ 500 nM), 0.12 ng/mL (≈ 0.12 nM), 2000 ng/mL (≈ 2000 nM), 8 ng/mL (≈ 8.01 nM) and 4000 ng/mL (≈ 4000 nM).
The matching figures for `CCNC(=O)NC1CCN(c2cc(O)c3nc4c5c6c7c(C)c(O)c5c(=O)c(c-4oc3c2)NC(=O)/C(C)=C\C=C\[C@H](C)[C@H](O)[C@@H](C)[C@@H](O)[C@@H](C)[C@H](OC(C)=O)[C@H](C)[C@@H](OC)/C=C/O[C@@](C)(O7)C6=O)CC1` [Compound 34]: 2000 ng/mL (≈ 2060 nM), 1 ng/mL (≈ 1.03 nM), 500 ng/mL (≈ 515 nM), 30 ng/mL (≈ 30.9 nM) and 8000 ng/mL (≈ 8250 nM).
Taken in the same sequence, the figures for `CO[C@H]1/C=C/O[C@@]2(C)Oc3c(C)c(O)c4c(=O)c(c5oc6cc(N7CCN(Cc8ccccc8)CC7)cc(O)c6nc-5c4c3C2=O)NC(=O)/C(C)=C\C=C\[C@H](C)[C@H](O)[C@@H](C)[C@@H](O)[C@@H](C)[C@H](O)[C@@H]1C` [Compound 89] were above 8000 ng/mL, 1 ng/mL (≈ 1.07 nM), 8000 ng/mL (≈ 8570 nM), 30 ng/mL (≈ 32.2 nM) and above 8000 ng/mL.
Turning to `COC1C=COC2(C)Oc3c(C)c(O)c4c(=O)c(c5oc6cc(N7CC8C(C7)C8N(C)C)cc(O)c6nc-5c4c3C2=O)NC(=O)C(C)=CC=CC(C)C(O)C(C)C(O)C(C)C(OC(C)=O)C1C` (stereo not shown) [Compound 53], in the test on E. faecalis, the “MIC E. faecalis” value was determined as 4000 ng/mL (≈ 4320 nM). Further, in the test with S. pneumo., the “MIC S. pneumo.” value came out at 8 ng/mL (≈ 8.65 nM). In the test on H. flu, the “MIC H. flu” value turned out to be 2000 ng/mL (≈ 2160 nM). Also, the “MIC S. aureus” value against S. aureus turned out to be 60 ng/mL (≈ 64.9 nM). Also, the “MIC E. coli” value in the test with E. coli was above 8000 ng/mL.
With `CO[C@H]1/C=C/O[C@@]2(C)Oc3c(C)c(O)c4c(=O)c(c5oc6cc(N7CCCC7)c(C)c(C)c6nc-5c4c3C2=O)NC(=O)/C(C)=C\C=C\[C@H](C)[C@H](O)[C@@H](C)[C@@H](O)[C@@H](C)[C@H](O)[C@@H]1C` [Compound 120], the “MIC E. faecalis” value against E. faecalis was determined as 4000 ng/mL (≈ 4760 nM). In addition, the “MIC S. pneumo.” value against S. pneumo. amounted to 60 ng/mL (≈ 71.4 nM). Also, the “MIC H. flu” value against H. flu is 1000 ng/mL (≈ 1190 nM). Further, the “MIC S. aureus” value in the test on S. aureus stood at 500 ng/mL (≈ 595 nM). The “MIC E. coli” value in the test with E. coli was above 8000 ng/mL.
The matching figures for `COC1C=COC2(C)Oc3c(C)c(O)c4c(=O)c(c5oc6cc(N7CC8CCCN(C(C)=O)C8C7)cc(O)c6nc-5c4c3C2=O)NC(=O)C(C)=CC=CC(C)C(O)C(C)C(O)C(C)C(O)C1C` (stereo not shown) [Compound 150]: 2000 ng/mL (≈ 2160 nM), 0.06 ng/mL (≈ 0.0649 nM), 500 ng/mL (≈ 541 nM), 4 ng/mL (≈ 4.32 nM) and above 8000 ng/mL.
The matching figures for `CO[C@H]1/C=C/O[C@@]2(C)Oc3c(C)c(O)c4c(=O)c(c5n(C)c6ccccc6nc-5c4c3C2=O)NC(=O)/C(C)=C\C=C\[C@H](C)[C@H](O)[C@@H](C)[C@@H](O)[C@@H](C)[C@H](O)[C@@H]1C` [Compound 134]: 2000 ng/mL (≈ 2650 nM), 500 ng/mL (≈ 661 nM), 2000 ng/mL (≈ 2650 nM), 500 ng/mL (≈ 661 nM) and 8000 ng/mL (≈ 10600 nM).
Taken in the same sequence, the figures for `COC1C=COC2(C)Oc3c(C)c(O)c4c(=O)c(c5oc6cc(N7CC(C)OC(C)C7)cc(O)c6nc-5c4c3C2=O)NC(=O)C(C)=CC=CC(C)C(O)C(C)C(O)C(C)C(O)C1C` (mixture of isomers) [Compound 117] were 250 ng/mL, 2 ng/mL, 250 ng/mL, 15 ng/mL and 8000 ng/mL.
With `CO[C@H]1/C=C/O[C@@]2(C)Oc3c(C)c(O)c4c(=O)c(c5oc6cc(N(C)C7CCN(C)CC7)cc(O)c6nc-5c4c3C2=O)NC(=O)/C(C)=C\C=C\[C@H](C)[C@H](O)[C@@H](C)[C@@H](O)[C@@H](C)[C@H](O)[C@@H]1C` [Compound 129], the “MIC E. faecalis” value against E. faecalis amounted to 500 ng/mL (≈ 565 nM). Besides, the “MIC S. pneumo.” value with S. pneumo. came out at 0.25 ng/mL (≈ 0.282 nM). The “MIC H. flu” value against H. flu is 250 ng/mL (≈ 282 nM). The “MIC S. aureus” value against S. aureus is 4 ng/mL (≈ 4.52 nM). In addition, in the test on E. coli, the “MIC E. coli” value came to 4000 ng/mL (≈ 4520 nM).
